Assay results reported in paper PMC10598577 (JACS Au, 2023).
“Also recorded” adds a separate entry of the source.

Legend:
[1] = biological target: T1, wild type MopR (Acinetobacter guillouiae, UniProt Q43965); settings: wild type MopR sensor domain; previous ITC studies; cited from earlier work
T1 sequence (Q43965 1-229): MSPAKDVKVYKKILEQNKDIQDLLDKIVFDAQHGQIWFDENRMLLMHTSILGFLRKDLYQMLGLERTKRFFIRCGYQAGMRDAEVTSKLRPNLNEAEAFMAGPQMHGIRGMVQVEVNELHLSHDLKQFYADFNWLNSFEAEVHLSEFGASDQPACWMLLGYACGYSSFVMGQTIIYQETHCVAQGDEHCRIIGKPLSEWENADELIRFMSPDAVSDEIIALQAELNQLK

[2] = biological target: T1, wild type MopR; test: biochemical
[3] = biological target: MopR M100Q_V116N (Acinetobacter guillouiae, UniProt Q43965, M100Q/V116N); test: biochemical
[4] = biological target: MopR M100K_V116D (Acinetobacter guillouiae, UniProt Q43965, M100K/V116D); settings: salt bridge mutant M100K_V116D, ligand phenol
[5] = biological target: MopR M100V_L119V (Acinetobacter guillouiae, UniProt Q43965, L119V/M100V); test: biochemical
[6] = tested on: MopR second barrier residues (F99, F132) mutated to leucine; settings: F99, F132 mutated to nonaromatic leucine, ligand phenol
[7] = biological target: MopR W134A; settings: cited from earlier work
[8] = tested on: MopR M100K_L119D; settings: salt bridge mutant M100K_L119D, ligand phenol
[9] = biological target: MopR M100Q_L119N (Acinetobacter guillouiae, UniProt Q43965, L119N/M100Q); test: biochemical
[10] = biological target: MopR H106A; settings: cited from earlier work

Row | SMILES | ligand selection profile of MopR (binding, in words) [1] | Kd [2] [µM] | Kd [3] [µM] | binding (ITC) [4] | Kd [5] [µM] | binding affinity (ITC) [6] | Kd [7] [µM] | binding (ITC) [8] | Kd [9] [µM] | Kd [10] [µM]
1 | c1ccccc1 [benzene] | significantly decreased affinity; also recorded: little or negligible binding |  |  |  |  |  |  |  |  | 
2 | Oc1ccccc1 [phenol] |  | 0.46 ± 0.06 | 4.35 ± 0.07 | no detectable binding | 0.45 ± 0.06 | significantly decrease the binding affinity | 2.87 ± 0.01 | no detectable binding | 2.7 ± 0.5 | 7.86 ± 0.01
